Assays:
[1] = test system: plasma luteinizing hormone (LH) levels; conditions: duration of action class as listed in Table 1; castrated male rat assay; ref Tables S1 and S2; cited from earlier work
Source text: Table 1 Biochemical and Biophysical Properties of Aggregates By GnRH-Analogs | column: Action || Supplement pbio.0060017.st001.doc, table 1: Table S1: Short acting GnRH analogs with their duration of action | column: Duration of action^b || Supplement pbio.0060017.st002.doc, table 1: Table S2: Long acting GnRH analogs with their duration of action | column: Duration of action^b || (+ 2 further places)

[2] = Congo red (CR) binding; format: physicochemical; parameters: key to Congo Red: b, binding; n, not binding; conditions: analogs incubated for 30 d, 1 mg/ml in 5% D-mannitol, 0.01% sodium azide, room temperature; UV 300–700 nm and by eye; three independent experiments
Procedure: To confirm amyloid formation by GnRH analogs, CR binding was measured. CR, like Thio T, is a dye routinely used to detect β-sheet–rich assemblies. CR binding can be measured by the “red shift” change of its absorption maximum from 490 to 540 nm, by an increase of the dye's molar absorptivity, and in favorable cases by eye. All three types of measurements were performed with GnRH analogs incubated for 30 d. […] However, five short-acting GnRH analogs, i.e., S3, S4, S6, S10, and S11, bind CR, showing that some short-acting GnRH-analogs are able to form amyloids after prolonged incubation (see also below). In contrast to short-acting analogs, all long-acting analogs bind CR.
GnRH analogs were dissolved in a glass tube in 1 ml of 5% D-mannitol and 0.01% sodium azide at a concentration of 1 mg/ml. The GnRH analogs were then incubated at room temperature without stirring. The fibril formation was monitored by EM, CR, and time-resolved by Thio T binding studies. Three independent experiments were performed for each sample.
A 5-μl aliquot of peptide sample was mixed with 80 μl of PBS buffer containing 10% ethanol. Then 15 μl of a 100 μM CR solution (filtered through 0.2-μm filter) in PBS containing 10% ethanol was added. After mixing, UV was measured from 300–700 nm. For the measurement of the CR-only spectrum, 15 μl of CR solution with 85 μl of PBS containing 10% ethanol was prepared. As a control, a 5-μl aliquot of GnRH analog mixed with 95 μl of PBS containing 10% ethanol was measured. Three independent experiments were performed for each sample. In addition to the UV measurements, pictures of the cuvette containing the peptide sample and CR were taken to visually show the CR binding to the amyloids.

[3] = target: T1, α-Syn (Homo sapiens, UniProt P37840); assay: Cross-seeding of α-Syn by L20 fibrils; conditions: matured fibrils 5% v/v with 400 μM α-Syn in PBS pH 7.4, 37 °C, vigorous stirring, 30 d; Thio T
T1 construct: made in house
Procedure: Although the seeding of amyloids requires a high amino acid sequence similarity between the protein/peptide of the seed and its soluble host counterpart, cross-seeding between different protein species have been documented. To test whether amyloids of long-acting GnRH analogs are able to cross-seed with a protein associated with Parkinson disease, α-Syn, a seeding reaction was done with a small amount of matured L20 fibrils (5% v/v) in the presence of α-Syn (95% v/v; 400 μM concentration of monomeric solution [pH 7.4] in PBS). The fibril growth of the mixture as well as α-Syn in PBS as control were followed over a period of 30 d by Thio T binding.
(§1) A total of 5 μl of matured L20 fibril solution at a concentration of 1 mg/ml in 5% D-mannitol, 0.01% sodium azide was mixed with 95 μl of freshly prepared GnRH solution in the same solution condition followed by incubation at room temperature without stirring. […] Once a week, a 10-μl aliquot was diluted into 500 μl water containing 5% D-mannitol, 0.01% sodium azide, and 10 μl of 1 mM Thio T to measure the Thio T fluorescence as described above. […] The protein concentration of the supernatant was measured by UV absorbance with ɛ280 of 6,500 M^−1cm^−1. […] The formation of amyloid was monitored regularly for the mixture (α-Syn+L20) and α-Syn by Thio T binding.

[4] = target: T2, wild-type GnRH (Homo sapiens, UniProt P01148); assay: Seeding of wild-type GnRH by L20 fibrils; conditions: matured fibrils 5% v/v with GnRH solution 95% v/v, 5% D-mannitol, room temperature without stirring, 1 mo; Thio T and EM
T2 construct: gonadotropin-releasing hormone (GnRH); made in house; host or cells: chemical solid-phase synthesis (no expression host)
Source text: Another concern for the application of amyloids in the formulation of long-acting drugs is the potential multiplication and spread of amyloids through seeding. Only a small amount of fibrillar seed is needed to induce and accelerate self-polymerization in the presence of monomeric amyloid protein/peptide. Within the context of GnRH, perhaps amyloids of the injected GnRH analogs may act as the seeds and the host GnRH as the reservoir of the free monomer. To mimic this situation in vitro, a seeding reaction was set up with a small amount of matured, long-acting L20 fibrils (5% v/v) in presence of a solution of wild-type GnRH (95% v/v). […]
as §1

- Congo Red [2]: b
- seeding of wild-type GnRH [4]: unable to seed wild-type GnRH
Substance: Ac-DNal-DCpa-Agl(Nic)-Ser-Aph(Ac)-DAph(Ac)-Leu-ILys-Pro-DAla-NH2 [L20]
- Action [1]: intermediate
- cross-seeding of α-Syn [3]: did not significantly influence the aggregation of α-Syn
